Columns and labels:
[1] = system: blackgrass; experiment: Test Example 5: herbicidal effect by foliage application, plastic box (Table 20, symbol J); assay type: in vivo, blackgrass (Alopecurus myosuroides); settings: foliage application, 320 g/ha, three weeks after application
Procedure, shortened: (§1)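 Sow seeds spot-wise in sterilized diluvial soil; cover with ~1.5 cm soil. Grow 14 days in greenhouse, 25° C. to 30° C. Spray foliage with emulsion diluted to predetermined amount. Rate effect after 3 weeks.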

[2] = system: persian speedwell; experiment: Test Example 5: herbicidal effect by foliage application, plastic box (Table 20, symbol R); assay type: in vivo, Persian speedwell (Veronica persica); settings: foliage application, 320 g/ha, three weeks after application
Procedure, shortened: as §1

[3] = system: barnyard grass; experiment: Test Example 4: herbicidal effect by soil treatment (Table 19, symbol H); assay type: in vivo, barnyard grass (Echinochloa crus-galli); settings: amount of applied herbicide 320 g/ha
Procedure, shortened: (§2)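 Applied as a water-diluted emulsion, the compound was sprayed onto soil covering newly sown seeds. Evaluation came three weeks after application, in a greenhouse held at 25° C. to 30° C.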

[4] = system: green foxtail; experiment: Test Example 4: herbicidal effect by soil treatment (Table 19, symbol G); assay type: in vivo, green foxtail (Setaria viridis); settings: amount of applied herbicide 320 g/ha
Procedure, shortened: as §2

[5] = system: barnyard grass; experiment: Test Example 3: herbicidal effect by foliage application, Wagner pot (Table 18, symbol H); assay type: in vivo, barnyard grass (Echinochloa crus-galli); settings: amount of applied herbicide 320 g/ha
Procedure, shortened: (§3)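 Plants were sown in alluvial soil held under 0.1–0.5 cm standing water and grown 14 days in a greenhouse at 25–30 °C. An emulsifiable formulation, water-diluted to the set dose, was then sprayed onto the foliage, and effects were scored three weeks later using previously defined criteria.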

[6] = system: Japanese bulrush; experiment: Test Example 1: herbicidal activity, application before weed generation under submerged conditions (Table 16, symbol B); assay type: in vivo, Japanese bulrush (Schoenoplectus juncoides); settings: amount of applied herbicide 320 g/ha
Procedure, shortened: (§4)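 Alluvial soil was flooded to 4 cm depth, weed seeds were sown mixed and 2.5-leaf rice seedlings were transplanted. On sowing day, the compound's emulsion, diluted in water to a set dose, was applied to the water surface. Plants grew at 25–30 °C and were scored 0–5 after three weeks.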

[7] = system: barnyard grass; experiment: Test Example 5: herbicidal effect by foliage application, plastic box (Table 20, symbol H); assay type: in vivo, barnyard grass (Echinochloa crus-galli); settings: foliage application, 320 g/ha, three weeks after application
Procedure, shortened: as §1

[8] = system: chickweed; experiment: Test Example 5: herbicidal effect by foliage application, plastic box (Table 20, symbol P); assay type: in vivo, common chickweed (Stellaria media); settings: foliage application, 320 g/ha, three weeks after application
Procedure, shortened: as §1

[9] = system: Italian ryegrass; experiment: Test Example 5: herbicidal effect by foliage application, plastic box (Table 20, symbol K); assay type: in vivo, Italian ryegrass (Lolium multiflorum); settings: foliage application, 320 g/ha, three weeks after application
Procedure, shortened: as §1

[10] = system: Italian ryegrass; experiment: Test Example 4: herbicidal effect by soil treatment (Table 19, symbol K); assay type: in vivo, Italian ryegrass (Lolium multiflorum); settings: amount of applied herbicide 320 g/ha
Procedure, shortened: as §2

[11] = system: late watergrass; experiment: Test Example 1: herbicidal activity, application before weed generation under submerged conditions (Table 16, symbol A); assay type: in vivo, late watergrass (Echinochloa oryzicola); settings: amount of applied herbicide 320 g/ha
Procedure, shortened: as §4

[12] = system: windgrass; experiment: Test Example 4: herbicidal effect by soil treatment (Table 19, symbol L); assay type: in vivo, windgrass (Apera spica-venti); settings: amount of applied herbicide 320 g/ha
Procedure, shortened: as §2

[13] = system: velvetleaf; experiment: Test Example 4: herbicidal effect by soil treatment (Table 19, symbol M); assay type: in vivo, velvetleaf (Abutilon theophrasti); settings: amount of applied herbicide 320 g/ha
Procedure, shortened: as §2

[14] = system: wild oat; experiment: Test Example 4: herbicidal effect by soil treatment (Table 19, symbol I); assay type: in vivo, wild oat (Avena fatua); settings: amount of applied herbicide 320 g/ha
Procedure, shortened: as §2

[15] = system: false cleavers; experiment: Test Example 4: herbicidal effect by soil treatment (Table 19, symbol Q); assay type: in vivo, false cleavers (Galium spurium); settings: amount of applied herbicide 320 g/ha
Procedure, shortened: as §2

[16] = system: green foxtail; experiment: Test Example 5: herbicidal effect by foliage application, plastic box (Table 20, symbol G); assay type: in vivo, green foxtail (Setaria viridis); settings: foliage application, 320 g/ha, three weeks after application
Procedure, shortened: as §1

[17] = system: lambsquarters; experiment: Test Example 5: herbicidal effect by foliage application, plastic box (Table 20, symbol O); assay type: in vivo, lambsquarters (Chenopodium album); settings: foliage application, 320 g/ha, three weeks after application
Procedure, shortened: as §1

[18] = system: southern crabgrass; experiment: Test Example 4: herbicidal effect by soil treatment (Table 19, symbol F); assay type: in vivo, southern crabgrass (Digitaria ciliaris); settings: amount of applied herbicide 320 g/ha
Procedure, shortened: as §2

[19] = system: blackgrass; experiment: Test Example 4: herbicidal effect by soil treatment (Table 19, symbol J); assay type: in vivo, blackgrass (Alopecurus myosuroides); settings: amount of applied herbicide 320 g/ha
Procedure, shortened: as §2

[20] = system: redroot pigweed; experiment: Test Example 4: herbicidal effect by soil treatment (Table 19, symbol N); assay type: in vivo, redroot pigweed (Amaranthus retroflexus); settings: amount of applied herbicide 320 g/ha
Procedure, shortened: as §2

[21] = system: wild oat; experiment: Test Example 5: herbicidal effect by foliage application, plastic box (Table 20, symbol I); assay type: in vivo, wild oat (Avena fatua); settings: foliage application, 320 g/ha, three weeks after application
Procedure, shortened: as §1

[22] = system: southern crabgrass; experiment: Test Example 5: herbicidal effect by foliage application, plastic box (Table 20, symbol F); assay type: in vivo, southern crabgrass (Digitaria ciliaris); settings: foliage application, 320 g/ha, three weeks after application
Procedure, shortened: as §1

[23] = system: redroot pigweed; experiment: Test Example 5: herbicidal effect by foliage application, plastic box (Table 20, symbol N); assay type: in vivo, redroot pigweed (Amaranthus retroflexus); settings: foliage application, 320 g/ha, three weeks after application
Procedure, shortened: as §1

[24] = system: rice flat sedge; experiment: Test Example 3: herbicidal effect by foliage application, Wagner pot (Table 18, symbol E); assay type: in vivo, rice flat sedge (Cyperus iria); settings: amount of applied herbicide 320 g/ha
Procedure, shortened: as §3

[25] = system: windgrass; experiment: Test Example 5: herbicidal effect by foliage application, plastic box (Table 20, symbol L); assay type: in vivo, windgrass (Apera spica-venti); settings: foliage application, 320 g/ha, three weeks after application
Procedure, shortened: as §1

[26] = system: lambsquarters; experiment: Test Example 4: herbicidal effect by soil treatment (Table 19, symbol O); assay type: in vivo, lambsquarters (Chenopodium album); settings: amount of applied herbicide 320 g/ha
Procedure, shortened: as §2

[27] = system: velvetleaf; experiment: Test Example 5: herbicidal effect by foliage application, plastic box (Table 20, symbol M); assay type: in vivo, velvetleaf (Abutilon theophrasti); settings: foliage application, 320 g/ha, three weeks after application
Procedure, shortened: as §1

[28] = system: Chinese sprangletop; experiment: Test Example 3: herbicidal effect by foliage application, Wagner pot (Table 18, symbol D); assay type: in vivo, chinese sprangletop (Leptochloa chinensis); settings: amount of applied herbicide 320 g/ha
Procedure, shortened: as §3

[29] = system: oval-leafed pondweed; experiment: Test Example 1: herbicidal activity, application before weed generation under submerged conditions (Table 16, symbol C); assay type: in vivo, oval-leafed pondweed (Monochoria vaginalis); settings: amount of applied herbicide 320 g/ha
Procedure, shortened: as §4

[30] = system: persian speedwell; experiment: Test Example 4: herbicidal effect by soil treatment (Table 19, symbol R); assay type: in vivo, Persian speedwell (Veronica persica); settings: amount of applied herbicide 320 g/ha
Procedure, shortened: as §2

SMILES: Cc1nn(CC#N)c(=O)c(-c2c(-c3ccc(F)cc3)sc3ccc(F)cc23)c1O [2-430]
- J: blackgrass, herbicidal effect grade [1]: 0 (Herbicidal rate of 5% or less (almost no effect))
- R: persian speedwell, herbicidal effect grade [2]: 4 (Herbicidal rate of 70% or more and less than 90%)
- herbicidal effect, H: barnyard grass [3]: 0 (Herbicidal rate of 5% or less (almost no effect))
- herbicidal effect, G: green foxtail [4]: 0 (Herbicidal rate of 5% or less (almost no effect))
- herbicidal effect on H: barnyard grass [5]: 2 (Herbicidal rate of 20% or more and less than 40%)
- Herbicidal effect, B: Japanese bulrush [6]: 0 (Herbicidal rate of 5% or less (almost no effect))
- H: barnyard grass, herbicidal effect grade [7]: 1 (Herbicidal rate of 5% or more and less than 20%)
- P: chickweed, herbicidal effect grade [8]: 5 (Herbicidal rate of 90% or more (almost completely withered))
- K: Italian ryegrass, herbicidal effect grade [9]: 3 (Herbicidal rate of 40% or more and less than 70%)
- herbicidal effect, K: Italian ryegrass [10]: 0 (Herbicidal rate of 5% or less (almost no effect))
- Herbicidal effect, A: late watergrass [11]: 3 (Herbicidal rate of 40% or more and less than 70%)
- herbicidal effect, L: windgrass [12]: 0 (Herbicidal rate of 5% or less (almost no effect))
- herbicidal effect, M: velvetleaf [13]: 2 (Herbicidal rate of 20% or more and less than 40%)
- herbicidal effect, I: wild oat [14]: 0 (Herbicidal rate of 5% or less (almost no effect))
- herbicidal effect, Q: false cleavers [15]: 0 (Herbicidal rate of 5% or less (almost no effect))
- G: green foxtail, herbicidal effect grade [16]: 2 (Herbicidal rate of 20% or more and less than 40%)
- O: lambsquarters, herbicidal effect grade [17]: 3 (Herbicidal rate of 40% or more and less than 70%)
- herbicidal effect, F: southern crabgrass [18]: 0 (Herbicidal rate of 5% or less (almost no effect))
- herbicidal effect, J: blackgrass [19]: 0 (Herbicidal rate of 5% or less (almost no effect))
- herbicidal effect, N: redroot pigweed [20]: 5 (Herbicidal rate of 90% or more (almost completely withered))
- I: wild oat, herbicidal effect grade [21]: 0 (Herbicidal rate of 5% or less (almost no effect))
- F: southern crabgrass, herbicidal effect grade [22]: 0 (Herbicidal rate of 5% or less (almost no effect))
- N: redroot pigweed, herbicidal effect grade [23]: 3 (Herbicidal rate of 40% or more and less than 70%)
- herbicidal effect on E: rice flat sedge [24]: 3 (Herbicidal rate of 40% or more and less than 70%)
- L: windgrass, herbicidal effect grade [25]: 0 (Herbicidal rate of 5% or less (almost no effect))
- herbicidal effect, O: lambsquarters [26]: 1 (Herbicidal rate of 5% or more and less than 20%)
- M: velvetleaf, herbicidal effect grade [27]: 2 (Herbicidal rate of 20% or more and less than 40%)
- herbicidal effect on D: Chinese sprangletop [28]: 0 (Herbicidal rate of 5% or less (almost no effect))
- Herbicidal effect, C: oval-leafed pondweed [29]: 0 (Herbicidal rate of 5% or less (almost no effect))
- herbicidal effect, R: persian speedwell [30]: 0 (Herbicidal rate of 5% or less (almost no effect))
